Measured values as given in paper PMC8151276, “An Integrated Approach toward NanoBRET Tracers for Analysis of GPCR Ligand Engagement” (Molecules, 2021).

Molecular target: T1, HTR1F (Homo sapiens, UniProt P30939)
T1 construct: purchased Promega (in-house HiBiT-GPCR construct library, NanoBRET)
T1 sequence (P30939 1-366): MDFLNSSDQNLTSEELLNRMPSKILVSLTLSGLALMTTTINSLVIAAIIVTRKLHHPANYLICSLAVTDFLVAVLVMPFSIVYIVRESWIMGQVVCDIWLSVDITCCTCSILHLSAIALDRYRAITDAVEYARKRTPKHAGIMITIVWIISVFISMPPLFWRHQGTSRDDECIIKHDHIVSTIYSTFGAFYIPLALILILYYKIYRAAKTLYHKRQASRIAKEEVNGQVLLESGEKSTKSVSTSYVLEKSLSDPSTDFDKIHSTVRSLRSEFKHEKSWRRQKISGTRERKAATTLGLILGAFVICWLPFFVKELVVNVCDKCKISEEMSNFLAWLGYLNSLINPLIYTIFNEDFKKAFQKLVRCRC
Assay: NanoBRET screen HiBiT-HTR1F in HEK293
Format: binding
Procedure: Each tracer candidate was screened across the entire library of HiBiT-GPCR constructs using NanoBRET as the detection modality. As depicted in Figure 4A, the specificity of interactions was evaluated through decrease in BRET due to competitive displacement of a bound tracer by excess parental compound. Each tracer was analyzed for binding to each HiBiT-GPCR fusion in the absence and in the presence of competing parental compound. Briefly, HEK293 cells were transfected with HiBiT-GPCR constructs diluted into promoterless DNA to reduce expression and maximize translocation to the cell surface. Each tracer candidate was then screened at concentrations of 1 μM and 0.1 μM across cells expressing these fusions. Cells were treated for 1.5 h with tracer either alone or in the presence of 20 μM competing parental compound (i.e., control). BRET was measured upon addition of purified LgBiT and subsequent complementation with HiBiT genetically fused to a GPCR. The specificity of interactions was assessed through a decrease in BRET signal due to competitive displacement of the bound tracer. To further gauge the robustness of these interactions, the fold response over the control (i.e., BRETtracer/BRETcontrol) was calculated. We chose a 1.5-fold response, which translates to ≥7-fold signal over noise as the minimal threshold required to score an interaction as positive.
HiBiT-GPCR DNA constructs were diluted in 10 mM Tris pH 8 to a final concentration of 0.01 μg/μL, arrayed in 96-well plates and stored at −20 °C. For transfection, HEK293 cells were suspended in Opti-MEM (without phenol red) supplemented with 2% fetal bovine serum (Seradigm) and 100 units/mL penicillin–streptomycin (Gibco) at a final concentration of 220,000 cells/mL and dispensed into white 96-well plates at 90 μL/well. Subsequent transfections and screens were carried using an Agilent Bravo Automated Liquid Handling Platform. First, the 96-well HiBiT DNA arrays were diluted 25-fold in Opti-MEM (without serum or phenol red) to a final concentration of 0.0004 μg/μL and 20 μL of the diluted DNAs were transferred into new 96-well plates. Next, promoterless carrier DNA (1 μg/μL) was diluted 25-fold (0.04 μg/μL) and then dispensed into the diluted arrays at 20 μL/well. Following brief mixing, Viafect transfection reagent (Promega) diluted 16-fold into Opti-MEM was dispensed into the plates at 40 μL/well. After mixing by pipetting, plates were incubated for 10 min on the pipetting station deck. The DNA-transfection reagent complexes were then added to plates containing cells. To facilitate the screen, 10 μL of DNA-transfection reagent complexes were added in duplicates to the top 4 and bottom 4 rows, resulting in two identical 48-well arrays per plate. Plates with transfected cells were incubated for 18–20 h at 37 °C/5% CO2. A screen of each tracer across the entire library using two different concentrations requires duplicate plates of transfected cells. Depending on the number of tracers being screened, transfections can be scaled up using the same ratios. The next day, for each tracer, four 20× screening solutions in tracer dilution buffer (Promega) were prepared: two duplicates at final concentration of 20 μM and two duplicates at a final concentration of 2 μM. […] The four resulting solutions were diluted 4-fold in Opti-MEM without serum or phenol red to generate 5× solutions (5 µM and 0.5 µM tracer +/− 100 μM competing compound). To screen the library, a BioTek MultiFlo FX liquid dispenser was used to dispense 22.5 µL of tracer solution to the top 4 rows and 22.5 µL tracer + competing compound solution to the 4 bottom rows. Plates were briefly mixed on an orbital shaker and incubated for 1.5 h at room temperature. […] Plates were briefly mixed on an orbital shaker and incubated for 15 min to allow complementation.

## COc1ccc2c(n1)c(CCNC(C)=O)cn2CCNC(=O)CCc1ccc2n1[B-](F)(F)[N+]1=C(c3ccc[nH]3)C=CC1=C2 [Azamelatonin-1-NB590]
0.1μM tracer
  NanoBRET Fold Response: 0.79
1μM tracer
  NanoBRET Fold Response: 0.79

## CC(C)N(CC[C@H](c1ccccc1)c1cc(CCNC(=O)c2ccc(CNC(=O)CCc3ccc4n3[B-](F)(F)[N+]3=C(c5ccc[nH]5)C=CC3=C4)cc2)ccc1O)C(C)C [Tolterodine-BZ-NB590]
HTR1F, tracer 0.1μM
  NanoBRET Fold Response: 1.24
HTR1F, tracer 1μM
  NanoBRET Fold Response: 1.63

## O=C(CCc1ccc2n1[B-](F)(F)[N+]1=C(c3ccc[nH]3)C=CC1=C2)NCCOCCOCCNC(=O)OCCOCCN1CCN(C2=Nc3ccccc3Sc3ccccc32)CC1 [Quetiapine-a-2-NB590]
HTR1F, tracer 0.1μM
  NanoBRET Fold Response: 1.01
HTR1F, tracer 1μM
  NanoBRET Fold Response: 0.95

## Cc1cc2c(s1)Nc1ccccc1N=C2N1CCN(CCCNC(=O)CCOCCOCCOCCOCCNC(=O)CCc2ccc3n2[B-](F)(F)[N+]2=C(c4ccc[nH]4)C=CC2=C3)CC1 [Olanzapine-a-2-NB590]
HTR1F, tracer 0.1μM
  NanoBRET Fold Response: 1.01
HTR1F, tracer 1μM
  NanoBRET Fold Response: 1.21

## O=C(CCc1ccc2n1[B-](F)(F)[N+]1=C(c3ccc[nH]3)C=CC1=C2)NCc1ccc(C(=O)NCCOCCOCCNCC(O)COc2cccc3ccccc23)cc1 (stereo not drawn) [Propranolol-3-NB590]
HTR1F, 0.1μM
  NanoBRET Fold Response: 1.08
HTR1F, 1μM
  NanoBRET Fold Response: 0.99

## N#CN/C(=N\CCNC(=O)c1ccc(N)cc1)NCCCOc1cccc(CN2CCCCC2)c1 [Aminopotentidine (unmodified)]
HTR1F, other tracers/Aminopotentidine (unmodified), 0.1μM
  NanoBRET Fold Response: 1.04
HTR1F, other tracers/Aminopotentidine (unmodified), 1μM
  NanoBRET Fold Response: 1.21

## CN1CCN(C2=Nc3cc(Cl)ccc3N(CC(=O)NCCOCCOCCOCCOCCNC(=O)CCc3ccc4n3[B-](F)(F)[N+]3=C(c5ccc[nH]5)C=CC3=C4)c3ccccc32)CC1 [Clozapine-c-2-NB590]
HTR1F, 0.1μM tracer
  NanoBRET Fold Response: 1.02
HTR1F, 1μM tracer
  NanoBRET Fold Response: 0.91

## O=C(CCc1ccc2n1[B-](F)(F)[N+]1=C(c3ccc[nH]3)C=CC1=C2)NCc1ccc(C(=O)NCCOCCC(=O)N[C@@H]2CC[C@@]3(O)[C@H]4Cc5ccc(O)c6c5[C@@]3(CCN4CC3CC3)[C@H]2O6)cc1 [Naltrexone-3-NB590]
HTR1F, tracer 0.1μM
  NanoBRET Fold Response: 1.35
HTR1F, tracer 1μM
  NanoBRET Fold Response: 1.30

## CC(C)N(CC[C@H](c1ccccc1)c1cc(CCNC(=O)CCOCCOCCOCCOCCNC(=O)CCc2ccc3n2[B-](F)(F)[N+]2=C(c4ccc[nH]4)C=CC2=C3)ccc1O)C(C)C [Tolterodine-2-NB590]
HTR1F, tracer 0.1μM
  NanoBRET Fold Response: 0.90
HTR1F, tracer 1μM
  NanoBRET Fold Response: 1.13

## Cc1nc2n(c(=O)c1CCN1CCC(c3noc4cc(F)ccc34)CC1)CCCC2OC(=O)NCCOCCOCCOCCOCCNC(=O)CCc1ccc2n1[B-](F)(F)[N+]1=C(c3ccc[nH]3)C=CC1=C2 (stereo not drawn) [Risperidone-2-NB590]
HTR1F, tracer 0.1μM
  NanoBRET Fold Response: 0.98
HTR1F, tracer 1μM
  NanoBRET Fold Response: 1.07

## O=C(CCOCCOCCOCCOCCNC(=O)CCc1ccc2n1[B-](F)(F)[N+]1=C(c3ccc[nH]3)C=CC1=C2)NCCCN1CCN(C2=Nc3cc(Cl)ccc3Nc3ccccc32)CC1 [Clozapine-a-2-NB590]
HTR1F, 0.1μM tracer
  NanoBRET Fold Response: 1.77
HTR1F, 1μM tracer
  NanoBRET Fold Response: 2.34

## COc1ccc2[nH]c(-c3ccc(CNC(=O)CCOCCOCCOCCOCCNC(=O)CCc4ccc5n4[B-](F)(F)[N+]4=C(c6ccc[nH]6)C=CC4=C5)cc3)c(CCNC(C)=O)c2n1 [AzomelatoninICO9-2-NB590]
0.1μM tracer
  NanoBRET Fold Response: 0.92
1μM tracer
  NanoBRET Fold Response: 0.95

## CN1CCN(C2=Nc3cc(Cl)ccc3Nc3ccc(CNC(=O)CCOCCOCCOCCOCCNC(=O)CCc4ccc5n4[B-](F)(F)[N+]4=C(c6ccc[nH]6)C=CC4=C5)cc32)CC1 [Clozapine-b-2-NB590]
HTR1F, 0.1μM tracer
  NanoBRET Fold Response: 1.00
HTR1F, 1μM tracer
  NanoBRET Fold Response: 1.28

## COc1ccccc1N1CCN(CCCCN2C(=O)c3ccc(CNC(=O)CCOCCNC(=O)c4ccc(CNC(=O)CCc5ccc6n5[B-](F)(F)[N+]5=C(c7ccc[nH]7)C=CC5=C6)cc4)cc3C2=O)CC1 [NAN-190-3-NB590]
HTR1F, tracer 0.1μM
  NanoBRET Fold Response: 2.92
HTR1F, tracer 1μM
  NanoBRET Fold Response: 1.93

## N#CN=C(NCCCOc1cccc(CN2CCCCC2)c1)NCCNC(=O)CCOCCOCCOCCOCCNC(=O)CCc1ccc2n1[B-](F)(F)[N+]1=C(c3ccc[nH]3)C=CC1=C2 [Aminopotentidine-2-NB590]
HTR1F, tracer 0.1μM
  NanoBRET Fold Response: 1.07
HTR1F, tracer 1μM
  NanoBRET Fold Response: 1.05

## CN(C)CCC=C1c2ccccc2CCc2ccc(C(=O)NCCNC(=O)CCOCCOCCOCCOCCNC(=O)CCc3ccc4n3[B-](F)(F)[N+]3=C(c5ccc[nH]5)C=CC3=C4)cc21 [Amitriptyline-b-2-NB590]
Tracer at 0.1μM, listed as amitriptyline-b-2-NB590
  NanoBRET Fold Response: 1.43

## COc1ccccc1N1CCN(CCCCN2C(=O)c3ccc(CNC(=O)CCOCCOCCOCCOCCNC(=O)CCc4ccc5n4[B-](F)(F)[N+]4=C(c6ccc[nH]6)C=CC4=C5)cc3C2=O)CC1 [NAN-190-2-NB590]
HTR1F, tracer 0.1μM
  NanoBRET Fold Response: 1.29
HTR1F, tracer 1μM
  NanoBRET Fold Response: 2.39

## O=C(CCOCCOCCOCCOCCNC(=O)CCc1ccc2n1[B-](F)(F)[N+]1=C(c3ccc[nH]3)C=CC1=C2)NCCCN1CCN(C2=Nc3ccccc3Oc3ccc(Cl)cc32)CC1 [Loxapine-a-2-NB590]
HTR1F, tracer 0.1μM
  NanoBRET Fold Response: 1.01
HTR1F, tracer 1μM
  NanoBRET Fold Response: 1.07

## CN(CCC=C1c2ccccc2CCc2ccccc21)C(=O)CCOCCOCCOCCOCCNC(=O)CCc1ccc2n1[B-](F)(F)[N+]1=C(c3ccc[nH]3)C=CC1=C2 [Amitriptyline-e-2-NB590]
Tracer at 1μM
  NanoBRET Fold Response: 1.02

## CCCn1c(=O)c2[nH]c(-c3ccc(OCC(=O)NCCNC(=O)CCOCCNC(=O)c4ccc(CNC(=O)CCc5ccc6n5[B-](F)(F)[N+]5=C(c7ccc[nH]7)C=CC5=C6)cc4)cc3)nc2n(CCC)c1=O [XAC-3-NB590]
HTR1F, tracer 0.1μM
  NanoBRET Fold Response: 1.07
HTR1F, tracer 1μM
  NanoBRET Fold Response: 1.05

## CN(C)CCC=C1c2ccccc2CCc2ccc(C(=O)NCCNC(=O)CCOCCOCCOCCOCCNC(=O)CCc3ccc4n3[B-](F)(F)[N+]3=C(c5ccc[nH]5)C=CC3=C4)cc21 [Amitriptyline-a-2-NB590]
Tracer at 0.1μM
  NanoBRET Fold Response: 0.97
Tracer at 1μM
  NanoBRET Fold Response: 1.02

## CCOC(=O)c1cc(C#N)c(N2CCC(C(=O)NS(=O)(=O)Cc3ccccc3/C=C/C(=O)NCCNC(=O)CCc3ccc4n3[B-](F)(F)[N+]3=C(c5ccc[nH]5)C=CC3=C4)CC2)nc1C [AZD1283-1-NB590]
HTR1F, 0.1μM
  NanoBRET Fold Response: 1.04
HTR1F, 1μM
  NanoBRET Fold Response: 1.02
